Key:
Hb = molecular target: T1, Hb (Homo sapiens, UniProt P68871+P69905); assay: Whole blood assay: oxygen equilibrium curves (Hemox Analyzer), change in p50; format: cell-based; details: whole blood incubated 1 h at 37° C., equimolar ratio of hemoglobin to compound
T1 construct: from tissue; host or cells: whole blood
Experimental: Whole blood assay: Oxygen equilibrium curves (OECs) were collected using a TCS Hemox Analyzer (TCS Scientific Company, New Hope, Pa., USA) to measure changes in the binding affinity of O2 to Hb. Whole blood was incubated for 1 h at 37° C. with the indicated compounds in an equimolar ratio of hemoglobin to compound and diluted into TES (2-[[1,3-dihydroxy-2-(hydroxymethyl)propan-2-yl]amino]ethanesulfonic acid)/saline buffer prior to measurements. For example, for whole blood at 20% hematocrit [Hct], which corresponds to 1 mM Hb, a compound concentration of 1 mM was used (for example, for compounds 1-5), and the incubated sample diluted 50- to 100-fold. The concentration for compounds 6-44 (Diastereomers 1 and 2) varied but remained in equimolar ratio to hemoglobin. The diluted samples were then oxygenated with compressed air within the Hemox Analyzer and the OECs were collected during deoxygenation as previously described (Guarnone et al., Haematologica, 1995, 80, 426-430). p 50 (partial pressure of O2 at which Hb is 50% saturated with O2) values were obtained using a non-linear regression analysis. Percentage change in p50 [Δp50(%)] was calculated as follows: Δp50(%)=[(p50 of control)−p50 with compound)/p50 control]×100.

Rat PK, oral gavage = format: in vivo, Sprague-Dawley rats; details: oral gavage 10 mg/kg; for blood plasma ratio / half-life: male, Sprague-Dawley, rat, po, 10 mg/kg; for blood plasma ratio: whole blood and plasma; for half-life: whole blood
Experimental: Rat PK: A group of fasted male Sprague-Dawley rats were dosed via oral gavage at 10 mg/kg with test articles formulated in 0.5% methylcellulose suspension. Blood samples were collected through jugular vein at pre-selected time points. Blood samples were prepared by protein precipitation with ACN, vortexed and then centrifuged before supernatants were transferred for bioanalysis. Test article concentrations were measured by HPLC-MS-MS. Pharmacokinetic parameters were calculated using non-compartment analysis. The blood/plasma ratio was calculated by dividing the AUClast (i.e., the area under the curve calculated from t=0 to the last detectable time-point) in blood by the AUClast in plasma. The T1/2 was calculated via a linear regression of the terminal phase of the blood-time concentration profile.

PXR nuclear receptor = molecular target: T2, PXR nuclear receptor (Homo sapiens, UniProt O75469); assay: CYP (PXR) assay: PXR nuclear receptor activation in DPX2 reporter cells; format: cell-based; details: fold PXR activation, 24 h
T2 construct: expressed in transfected cells; host or cells: DPX2 (stably transfected human hepatoma cells)
T2 sequence (O75469 1-434): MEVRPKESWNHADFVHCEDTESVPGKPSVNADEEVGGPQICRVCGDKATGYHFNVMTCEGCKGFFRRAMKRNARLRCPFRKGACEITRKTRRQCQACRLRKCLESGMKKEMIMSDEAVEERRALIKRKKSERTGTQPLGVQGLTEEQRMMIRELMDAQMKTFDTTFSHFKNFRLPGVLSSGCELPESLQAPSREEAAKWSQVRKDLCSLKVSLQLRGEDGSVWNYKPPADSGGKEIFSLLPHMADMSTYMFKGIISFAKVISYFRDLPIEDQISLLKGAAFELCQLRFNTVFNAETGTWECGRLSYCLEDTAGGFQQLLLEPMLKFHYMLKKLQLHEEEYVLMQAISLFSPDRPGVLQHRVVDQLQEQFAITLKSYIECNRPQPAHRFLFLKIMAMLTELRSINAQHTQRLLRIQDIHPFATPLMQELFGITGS
Experimental: CYP (PXR) Assay: PXR nuclear receptor activation utilizing stably-transfected human hepatoma cell lines (DPX2) were seeded in a 96-well plate. Twenty-four hours after seeding, the cells were treated with selected concentrations of compounds in duplicate wells, and cells then returned to the incubator for an additional 24 h. At the end of this incubation period, the number of viable cells/well were determined using Promega's Cell Titer Fluor cytotoxicity assay. Subsequently, Promega's ONE-Glo were added to the same wells and reporter gene activity were assessed. The average luminescent units for each compound dose of two replicates were divided by the average for the DMSO solvent control to determine the fold-induction. In accordance with industry standard, a threshold of ≥2.5-fold was used to flag compounds that have in vivo CYP induction risk.

[1] = AUClast in blood divided by AUClast in plasma, rats
[2] = fasted male Sprague-Dawley rats, 0.5% methylcellulose suspension, blood

T1 sequence (P69905 2-142 limits assumed): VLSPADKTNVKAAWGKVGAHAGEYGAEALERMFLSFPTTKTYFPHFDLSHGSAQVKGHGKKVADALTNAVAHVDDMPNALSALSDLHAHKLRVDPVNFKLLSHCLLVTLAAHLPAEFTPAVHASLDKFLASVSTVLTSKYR
T1 sequence (P68871 2-147 limits assumed): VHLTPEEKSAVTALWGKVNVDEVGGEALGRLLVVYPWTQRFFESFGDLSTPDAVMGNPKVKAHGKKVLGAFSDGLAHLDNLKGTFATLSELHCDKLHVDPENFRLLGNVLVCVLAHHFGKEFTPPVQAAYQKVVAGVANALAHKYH

SMILES	Delta-p50 (%) (Hb)	blood plasma ratio (Rat PK, oral gavage; [1])	half-life (Rat PK, oral gavage; [2]) [h]	also measured
O=Cc1c(O)cccc1OC[C@@H]1COCCN1C(=O)c1ccccc1CO [Compound 23, 2-hydroxy-6-{[(3S)-4-[2-(hydroxymethyl)benzoyl]morpholin-3-yl]methoxy}benzaldehyde]	70.92	59	62	–
Cc1ncccc1C(=O)N1CCCC[C@H]1COc1cccc(O)c1C=O [Reference Compound C, reference compound]	–	–	–	CYP (PXR) Flag (PXR nuclear receptor; at 25 μM): Y^1 (PXR activation ≥ 2.5-fold)
O=Cc1c(O)cccc1OC[C@@H]1CSCCN1C(=O)c1ccccc1C(O)CO (single isomer, unassigned) [35 (Diastereomer 2)]	83.1	–	–	Blood/Plasma ratio (Rat PK, oral gavage; [1]): 636; T1/2 (Rat PK, oral gavage; [2]): 89 h
O=Cc1c(O)cccc1OC[C@@H]1CCCCN1C(=O)c1cccnc1CO [Compound 11, (S)-2-hydroxy-6-((1-(2-(hydroxymethyl)nicotinoyl)piperidin-2-yl)methoxy)benzaldehyde]	79.3	126	55	–
O=Cc1c(O)cccc1OC[C@@H]1CCCCN1C(=O)c1cccnc1C(O)CO (stereo partly drawn) [Compound 36, 2-{[(2S)-1-[2-(1,2-dihydroxyethyl)pyridine-3-carbonyl]piperidin-2-yl]methoxy}-6-hydroxybenzaldehyde]	77.04	115	56	–
O=Cc1c(O)cccc1OC[C@@H]1CSCCN1C(=O)c1ccccc1C(O)CO (single isomer, unassigned) [35 (Diastereomer 1)]	81.35	493	102	–
O=Cc1c(O)cccc1OCC1CSCCN1C(=O)c1cccnc1CCO (single isomer, unassigned) [10 (Enantiomer 2)]	87.3	212	112	–
CC(C)(O)Cc1ncccc1C(=O)N1CCOC[C@H]1COc1cccc(O)c1C=O [Compound 39, 2-hydroxy-6-{[(3S)-4-[2-(2-hydroxy-2-methylpropyl)pyridine-3-carbonyl]morpholin-3-yl]methoxy}benzaldehyde]	77.98	52	52	–
O=Cc1c(O)cccc1OC[C@@H]1CCCCN1C(=O)c1cccnc1 [Reference Compound A, reference compound]	–	75	29	CYP (PXR) Flag (PXR nuclear receptor; at 30 μM): Y (PXR activation ≥ 2.5-fold)
O=Cc1c(O)cccc1OC[C@@H]1COCCN1C(=O)c1ccccc1CCO [Compound 22, 2-hydroxy-6-{[(3S)-4-[2-(2-hydroxyethyl)benzoyl]morpholin-3-yl]methoxy}benzaldehyde]	70.32	–	–	–
O=Cc1c(O)cccc1OC[C@@H]1CCCCN1C(=O)c1ccccc1C(O)CO (stereo partly drawn) [Compound 34, 2-{[(2S)-1-[2-(1,2-dihydroxyethyl)benzoyl]piperidin-2-yl]methoxy}-6-hydroxybenzaldehyde]	79.46	–	–	–
N#CCCc1nccnc1C(=O)N1CCOC[C@H]1COc1cccc(O)c1C=O [Compound 32, 3-{3-[(3S)-3-[(2-formyl-3-hydroxyphenoxy)methyl]morpholine-4-carbonyl]pyrazin-2-yl}propanenitrile]	60.55	–	–	–
COCCc1ncccc1C(=O)N1CCOC[C@H]1COc1cccc(O)c1C=O [Compound 20, 2-hydroxy-6-{[(3S)-4-[2-(2-methoxyethyl)pyridine-3-carbonyl]morpholin-3-yl]methoxy}benzaldehyde]	78.32	45	65	–
COCCc1ncccc1C(=O)N1CCC[C@H]1COc1cccc(O)c1C=O [Compound 24, 2-hydroxy-6-{[(2S)-1-[2-(2-methoxyethyl)pyridine-3-carbonyl]pyrrolidin-2-yl]methoxy}benzaldehyde]	65.51	–	–	–
O=Cc1c(O)cccc1OC[C@@H]1CCCCN1C(=O)c1ncccc1CCO [Compound 16, (S)-2-hydroxy-6-((1-(3-(2-hydroxyethyl)picolinoyl)piperidin-2-yl)methoxy)benzaldehyde]	49.55	–	–	–
CC(O)Cc1ncccc1C(=O)N1CCSC[C@H]1COc1cccc(O)c1C=O (single isomer, unassigned) [44 (Diastereomer 2)]	54.34	–	–	–
O=Cc1c(O)cccc1OC[C@@H]1CCCN1C(=O)c1cccnc1CCO [Compound 9, (S)-2-hydroxy-6-((1-(2-(2-hydroxyethyl)-nicotinoyl)pyrrolidin-2-yl)methoxy)benzaldehyde]	62.2	–	–	–
O=Cc1c(O)cccc1OC[C@@H]1CCCCN1C(=O)c1nccnc1CCO [Compound 7, (S)-2-hydroxy-6-((1-(3-(2-hydroxyethyl)pyrazine-2-carbonyl)piperidin-2-yl)methoxy)benzaldehyde]	62.7	–	–	–
N#CCCc1ccccc1C(=O)N1CCOC[C@H]1COc1cccc(O)c1C=O [Compound 31, 3-{2-[(3S)-3-[(2-formyl-3-hydroxyphenoxy)methyl]morpholine-4-carbonyl]phenyl}propanenitrile]	74.03	–	–	–
O=Cc1c(O)cccc1OC[C@@H]1CCCN1C(=O)c1nccnc1CCO [Compound 19, (S)-2-hydroxy-6-((1-(3-(2-hydroxyethyl)pyrazine-2-carbonyl)pyrrolidin-2-yl)methoxy)benzaldehyde]	54.67	–	–	–
N#CCCc1ncccc1C(=O)N1CCCC[C@H]1COc1cccc(O)c1C=O [Compound 3, (S)-3-(3-(2-((2-formyl-3-hydroxyphenoxy)methyl)piperidine-1-carbonyl)pyridin-2-yl)propanenitrile]	85.8	–	–	–
O=Cc1c(O)cccc1OC[C@@H]1CCCCN1C(=O)c1cccnc1CCN1CCCC1 [Compound 4, (S)-2-hydroxy-6-((1-(2-(2-(pyrrolidin-1-yl)ethyl)nicotinoyl)piperidin-2-yl)methoxy)benzaldehyde]	75.5	–	–	–
CC(O)c1ncccc1C(=O)N1CCOC[C@H]1COc1cccc(O)c1C=O (single isomer, unassigned) [41 (Diastereomer 2)]	53.94	–	–	–
O=Cc1c(O)cccc1OCC1CSCCN1C(=O)c1ccccc1CO (single isomer, unassigned) [40 (Enantiomer 2)]	83.36	424	117	–
CC(O)c1ncccc1C(=O)N1CCSC[C@H]1COc1cccc(O)c1C=O (single isomer, unassigned) [43 (Diastereomer 2)]	64.56	–	–	–

From US11548880B2, “Modulators of hemoglobin” (Global Blood Therapeutics, Inc., priority 2018, dated 2023)
